pEC50, pIC50, pKi: −log10 of the molar value. Active and inactive are the calls of the source. The calls are words filed in the database; no cut-off is given here.
Assays:
Estrogen receptor [1] = biological target: T1, Estrogen receptor (Homo sapiens, UniProt P03372); test: Binding affinity to human ERalpha LBD after 2 hrs in absence of light by competitive fluorometric binding assay
T1 sequence (P03372 whole entry): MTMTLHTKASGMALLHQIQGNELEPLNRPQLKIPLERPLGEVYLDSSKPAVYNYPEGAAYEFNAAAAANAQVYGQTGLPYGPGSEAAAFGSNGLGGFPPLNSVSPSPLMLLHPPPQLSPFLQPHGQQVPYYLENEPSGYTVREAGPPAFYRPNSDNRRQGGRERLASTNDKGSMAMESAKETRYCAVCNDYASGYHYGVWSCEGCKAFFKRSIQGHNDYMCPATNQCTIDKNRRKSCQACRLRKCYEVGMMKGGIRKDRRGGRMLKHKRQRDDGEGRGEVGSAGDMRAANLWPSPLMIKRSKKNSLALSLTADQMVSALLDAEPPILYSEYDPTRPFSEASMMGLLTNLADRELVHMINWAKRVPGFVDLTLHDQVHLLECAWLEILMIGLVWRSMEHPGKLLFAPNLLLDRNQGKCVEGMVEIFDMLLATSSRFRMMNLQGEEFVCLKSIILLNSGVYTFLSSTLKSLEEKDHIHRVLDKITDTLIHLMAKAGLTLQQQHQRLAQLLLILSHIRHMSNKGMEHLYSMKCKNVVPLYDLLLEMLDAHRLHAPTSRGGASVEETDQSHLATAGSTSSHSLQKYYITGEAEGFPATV

Estrogen receptor beta [2] = biological target: T2, Estrogen receptor beta (Homo sapiens, UniProt Q92731); test: Binding affinity to human ERbeta LBD after 2 hrs in absence of light by competitive fluorometric binding assay
T2 sequence (Q92731 whole entry, the tested form may be a part): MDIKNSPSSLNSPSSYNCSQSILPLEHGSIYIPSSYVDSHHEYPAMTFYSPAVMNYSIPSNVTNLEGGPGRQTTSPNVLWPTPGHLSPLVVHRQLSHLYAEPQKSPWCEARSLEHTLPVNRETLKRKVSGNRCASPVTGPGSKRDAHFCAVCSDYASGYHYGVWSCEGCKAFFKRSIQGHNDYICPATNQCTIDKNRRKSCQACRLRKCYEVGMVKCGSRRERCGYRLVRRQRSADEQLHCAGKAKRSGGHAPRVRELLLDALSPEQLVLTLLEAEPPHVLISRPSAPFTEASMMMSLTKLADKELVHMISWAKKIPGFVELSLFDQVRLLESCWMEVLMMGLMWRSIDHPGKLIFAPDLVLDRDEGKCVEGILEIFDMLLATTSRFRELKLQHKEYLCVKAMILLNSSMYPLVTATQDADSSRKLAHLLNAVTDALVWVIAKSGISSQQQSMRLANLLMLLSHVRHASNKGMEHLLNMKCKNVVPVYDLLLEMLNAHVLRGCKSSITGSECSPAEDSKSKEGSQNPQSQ

[3] = biological target: T3, Estrogen receptor (Homo sapiens) (UniProt P03372); test: Agonist activity at human ERalpha expressed in HEK293T cells after 24 hrs by ERE-based dual luciferase reporter gene assay relative to E2; assay type: cell-based
T3 sequence (whole entry): T1 sequence (P03372 whole entry)

Estrogen receptor beta [4] = biological target: T2, Estrogen receptor beta; test: Agonist activity at human ERbeta expressed in HEK293T cells after 24 hrs by ERE-based dual luciferase reporter gene assay; assay type: cell-based
Estrogen receptor beta [5] = biological target: T2, Estrogen receptor beta; test: Agonist activity at human ERbeta expressed in HEK293T cells after 24 hrs by ERE-based dual luciferase reporter gene assay relative to E2; assay type: cell-based
[6] = biological target: T3, Estrogen receptor (Homo sapiens); test: Antagonist activity at human ERalpha expressed in HEK293T cells after 24 hrs by ERE-based dual luciferase reporter gene assay relative to E2; assay type: cell-based
Estrogen receptor beta [7] = biological target: T2, Estrogen receptor beta; test: Antagonist activity at human ERbeta expressed in HEK293T cells after 24 hrs by ERE-based dual luciferase reporter gene assay relative to E2; assay type: cell-based; parameters: concentration or dose not given beside the values
[8] = Inhibition of NFkappaB in mouse RAW 264.7 cells assessed as reduction in LPS induced NO production after 24 hrs by Griess assay; assay type: cell-based; conditions: RAW264.7, 24 h
Mus musculus [9] = species on record: Mus musculus; test: Inhibition of NFkappaB in mouse RAW 264.7 cells assessed as reduction in LPS induced NO production at 10 uM after 24 hrs by Griess assay relative to control; assay type: cell-based
MCF7 [10] = test: cells; conditions: Homo sapiens, MCF7, 72 h
Estrogen receptor [11] = biological target: T1, Estrogen receptor; test: Antagonist activity at human ERalpha expressed in HEK293T cells after 24 hrs by ERE-based dual luciferase reporter gene assay; assay type: cell-based
Estrogen receptor beta [12] = biological target: T2, Estrogen receptor beta; test: Antagonist activity at human ERbeta expressed in HEK293T cells after 24 hrs by ERE-based dual luciferase reporter gene assay; assay type: cell-based
MCF7 [13] = test: Antitumor activity against human MCF7 cells xenografted in nude Balb/c mouse assessed as reduction in tumor burden at 17.5 mg/kg, po administered once every 2 days via gavage measured every 3 days; assay type: functional, organism-based
MCF7 [14] = test: Antitumor activity against human MCF7 cells xenografted in nude Balb/c mouse assessed as reduction in tumor burden at 25 mg/kg, po administered once every 2 days via gavage measured on day 12; assay type: functional; parameters: scale not given: the % may be the effect or the level left
MCF7 [15] = test: Antitumor activity against human MCF7 cells xenografted in nude Balb/c mouse assessed as tumor growth inhibition at 25 mg/kg, po administered once every 2 days via gavage measured on day 27; assay type: functional; conditions: read-out: TGI
Mus musculus [16] = test: Toxicity in nude Balb/c mouse xenografted with human MCF7 cells assessed as reduction in body weight at 17.5 to 25 mg/kg, po administered once every 2 days via gavage measured every 3 days; assay type: organism-based; conditions: in vivo
Mus musculus [17] = test: Antiinflammatory activity in Balb/c mouse xenografted with human MCF7 cells assessed as inhibition of NFkappaB expression in tissues around the tumor at 17.5 to 25 mg/kg, po administered once every 2 days via gavage measured after 2 weeks post dose; assay type: functional, organism-based
Mus musculus [18] = test: Antiinflammatory activity in Balb/c mouse xenografted with human MCF7 cells assessed as inhibition of IL6 expression in tissues around the tumor at 17.5 to 25 mg/kg, po administered once every 2 days via gavage measured after 2 weeks post dose; assay type: functional, organism-based
Mus musculus [19] = test: Antiinflammatory activity in Balb/c mouse xenografted with human MCF7 cells assessed as inhibition of TNFalpha expression in tissues around the tumor at 17.5 to 25 mg/kg, po administered once every 2 days via gavage measured after 2 weeks post dose; assay type: functional, organism-based
MCF7 [20] = test: Antiproliferative activity against human MCF7 cells at 5 to 20 uM after 48 hrs in presence of JSH-23 by MTT assay
[21] = Inhibition of NFkappaB in mouse RAW 264.7 cells assessed as reduction in LPS induced NO production after 24 hrs in presence of OBHS by Griess assay; conditions: RAW264.7, 24 h
Mus musculus [22] = species on record: Mus musculus; test: Inhibition of NFkappaB in mouse RAW 264.7 cells assessed as reduction in LPS induced NO production at 10 uM after 24 hrs in presence of OBHS by Griess assay relative to control; assay type: cell-based
MCF7 [23] = test: Antiproliferative activity against human MCF7 cells after 72 hrs in presence of OBHS by MTT assay; conditions: MCF7, 72 h
[24] = Inhibition of NFkappaB in mouse RAW 264.7 cells assessed as reduction in LPS induced NO production after 24 hrs in presence of resveratrol by Griess assay relative to control; assay type: cell-based; conditions: RAW264.7, 24 h
Mus musculus [25] = species on record: Mus musculus; test: Inhibition of NFkappaB in mouse RAW 264.7 cells assessed as reduction in LPS induced NO production at 10 uM after 24 hrs in presence of resveratrol by Griess assay relative to control; assay type: cell-based
MCF7 [26] = test: Antiproliferative activity against human MCF7 cells after 72 hrs in presence of resveratrol by MTT assay; assay type: functional, cell-based; conditions: MCF7, 72 h
Estrogen receptor [27] = biological target: T1, Estrogen receptor; test: Agonist activity at human ERalpha expressed in HEK293T cells after 24 hrs by ERE-based dual luciferase reporter gene assay; assay type: cell-based

Row | SMILES | pKi (Estrogen receptor [1]) | pKi (Estrogen receptor beta [2]) | Efficacy [3] [%] | pEC50 (Estrogen receptor beta [4]) | Efficacy (Estrogen receptor beta [5]) [%] | Efficacy [6] [%] | Efficacy (Estrogen receptor beta [7]) [%] | pIC50 [8] | pIC50 (MCF7 [10]) | pIC50 (Estrogen receptor [11]) | inhibition (Mus musculus [9]) [%] | other results
1 | COc1cc(/C=C/c2ccc(C3=C(c4ccc(O)cc4)C4CC(S(=O)(=O)Oc5ccccc5)C3O4)cc2)cc(OC)c1 (centres undefined) | < 5.00 | < 5.00 | 10 | 5.24 | 57 | 89 | 85 | < 4.00 | < 4.00 | – | 20.4 | –
2 | Oc1ccc(/C=C/c2cc(O)cc(O)c2)cc1 [RESVERATROL] | – | – | – | – | – | – | – | 4.88 | 4.64 | – | 48 | pIC50 [21]: 4.96; inhibition (Mus musculus [22]): 80.4%; pIC50 (MCF7 [23]): 4.60
3 | O=S(=O)(Oc1ccccc1)[C@H]1C[C@@H]2O[C@@H]1C(c1ccc(O)cc1)=C2c1ccc(O)cc1 (relative stereo) | – | – | – | – | – | – | – | 4.74 | 4.49 | – | 41.5 | pIC50 [24]: 4.96; inhibition (Mus musculus [25]): 80.4%; pIC50 (MCF7 [26]): 4.60
4 | CC/C(=C(\c1ccccc1)c1ccc(OCCN(C)C)cc1)c1ccccc1 [TAMOXIFEN] | – | – | – | – | – | – | – | – | – | – | – | Activity (MCF7 [14]): 48%; inhibition in vivo at 25 mg/kg (MCF7 [15]): 33%

The next lines start with results.

Row | pKi (Estrogen receptor [1]) | pKi (Estrogen receptor beta [2]) | Efficacy [3] [%] | pEC50 (Estrogen receptor beta [4]) | Efficacy (Estrogen receptor beta [5]) [%] | Efficacy [6] [%] | Efficacy (Estrogen receptor beta [7]) [%] | pIC50 [8] | pIC50 (MCF7 [10]) | pIC50 (Estrogen receptor [11]) | SMILES | inhibition (Mus musculus [9]) [%] | other results
5 | 7.46 | 7.13 | 9 to 23 | 8.40 | 23 | 48 | 32 | 6.36 | 5.43 | 8.15 | COc1cc(/C=C/c2ccc(OS(=O)(=O)C3CC4OC3C(c3ccc(O)cc3)=C4c3ccc(O)cc3)cc2)cc(OC)c1 (centres undefined) | 95.6 | pIC50 (Estrogen receptor beta [12]): 6.03; Activity (MCF7 [13]): Active; Activity (MCF7 [14]): 55%; inhibition in vivo at 25 mg/kg (MCF7 [15]): ≤ 69%; Activity (Mus musculus [16]): Non-Toxic; inhibition (Mus musculus [17]): Active; inhibition (Mus musculus [18]): Active; inhibition (Mus musculus [19]): Active; Activity (MCF7 [20]): inactive
6 | < 5.00 | < 5.00 | 18 | – | 6 | 97 | 94 | < 4.00 | < 4.00 | 5.03 | COc1cc(/C=C/c2ccc(C3=C(c4ccc(O)cc4)C4CC(S(=O)(=O)Oc5ccc(Br)cc5)C3O4)cc2)cc(OC)c1 (centres undefined) | 30.8 | –
7 | 6.30 | – | -24 | 5.54 | 48 | 3 | 82 | 4.76 | 4.74 | – | O=S(=O)(Oc1ccccc1C(F)(F)F)C1CC2OC1C(c1ccc(/C=C/c3cc(O)cc(O)c3)cc1)=C2c1ccc(O)cc1 (centres undefined) | 38.5 | –
8 | – | – | 77 | 6.11 | 29 | 1 | 42 | 4.90 | 5.04 | 8.70 | Cc1ccc(OS(=O)(=O)C2CC3OC2C(c2ccc(/C=C/c4cc(O)cc(O)c4)cc2)=C3c2ccc(O)cc2)cc1 (centres undefined) | 42.3 | pEC50 (Estrogen receptor [27]): 7.15; pIC50 (Estrogen receptor beta [12]): 7.16
